Key:
Ba/F3_KRAS^G12D cells = Ba/F3_KRAS^G12D cells (Homo sapiens, UniProt P01116, G12D, cells depend on it); experiment: Ba/F3 KRAS G12D cell proliferation assay (CellTiter-Glo); type: cell-based; conditions: treated for 3 days, cell-titer Glo, cell growth inhibition, read-out: BaF3_KRAS^G12D IC50
Description: Ba/F3_KRAS^G12D cells (KYinno, China) were generated by transducing Ba/F3 parental cells with the recombinant KRAS^G12D lentivirus and followed by 1 ug/mL of puromycin selection and IL3 depletion. […] Cells were seeded at a density of 5×10^3 per well into 96-well plate and incubated overnight. Serial diluted compounds were added to each well. Cells were treated with the compounds for 3 days, after which cell-titer Glo reagent (Promega #G7572) was used to assess cell proliferation. The luminescence signal was then collected on Tecan Spark plate reader. […] Cell growth inhibition of IC50 is calculated with the equation of Y=Bottom+(Top−Bottom)/(1+10^((Log IC50−X)*Hill Slope))

[1] = biological target: recombinant human KRAS^G12D protein (Homo sapiens, UniProt P01116, G12D); experiment: Temperature-dependent Fluorescence (TdF) KRAS G12D protein binding assay; conditions: 6 μM KRAS^G12D protein, 10 μM compound, Sypro Orange; Kd calculated from the fluorescent shift
Sequence of recombinant human KRAS^G12D protein (P01116 1-188 isoform P01116-2 G12D): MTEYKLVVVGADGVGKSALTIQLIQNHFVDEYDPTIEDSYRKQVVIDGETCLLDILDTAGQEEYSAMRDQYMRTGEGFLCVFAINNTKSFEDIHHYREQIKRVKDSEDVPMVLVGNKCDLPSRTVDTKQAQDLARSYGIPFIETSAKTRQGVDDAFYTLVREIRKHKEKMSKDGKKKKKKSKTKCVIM
Description: The Temperature-dependent Fluorescence (TdF) assay was used to analyze binding affinity of compound to recombinant human KRAS^G12D protein. The TdF assay was conducted in the 96-well-based real-time fluorescence plate reader (ABI 7500 or Roche LightCycler 480). Fluorescent dye Sypro Orange (Sigma) was used to monitor the protein folding-unfolding transition. Protein-compound binding was gauged by the shift in the unfolding transition temperature (ΔTm) acquired with and without compound. Each reaction sample consists of 6 μM KRAS^G12D Protein, 10 μM compound, and Sypro Orange dye (in 1% DMSO) in 20 μL reaction buffer (25 mM HEPES pH 7.5, 150 mM NaCl, 10 mM MgCl2). […] Binding affinity (Kd value) was calculated based on the degree of fluorescent shift of the protein with and without compound.

Sequence of Ba/F3_KRAS^G12D cells (P01116 whole entry G12D): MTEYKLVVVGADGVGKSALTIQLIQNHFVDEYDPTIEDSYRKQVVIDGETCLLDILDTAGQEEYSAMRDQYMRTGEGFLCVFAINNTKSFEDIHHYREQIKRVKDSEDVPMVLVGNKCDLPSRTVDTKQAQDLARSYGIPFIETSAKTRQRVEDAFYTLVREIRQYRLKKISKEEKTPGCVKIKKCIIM

| GI50 (Ba/F3_KRAS^G12D cells) | Kd [1] | Structure (SMILES) |
| --- | --- | --- |
| 500 to 5000 nM | > 5000 nM | Oc1cc(-c2c(Cl)cc3c(N4CC5CCC(C4)N5)nc(OCCN4CCOCC4)nc3c2F)c2ccccc2c1 [Compound 59] |
| 500 to 5000 nM | > 5000 nM | CN1CCC(c2nc(N3CC4CCC(C3)N4)c3cc(Cl)c(-c4cc(O)cc5ccccc45)c(F)c3n2)CC1 [Compound 60] |
| 500 to 5000 nM | < 500 nM | Oc1cc(-c2c(Cl)cc3c(N4CC5CCC(C4)N5)nc(OCC45CCCN4CCC5)nc3c2F)c2c(Cl)cccc2c1 [Compound 61] |
| < 500 nM | 500 to 5000 nM | Fc1c(-c2cccc3cccc(Cl)c23)c(Cl)cc2c(N3CC4CCC(C3)N4)nc(OCC34CCCN3CCC4)nc12 [Compound 64] |
| 500 to 5000 nM | < 500 nM | Oc1cc(-c2c(Cl)cc3c(N4CC5CCC(C4)N5)nc(OCC45CCCN4CC(F)(F)C5)nc3c2F)c2c(Cl)cccc2c1 (stereo not drawn) [Compound 65] |
| > 5000 nM | > 5000 nM | Nc1cccc(F)c1-c1c(Cl)cc2c(N3C4CCC3CNC4)nc(OCC34CCCN3CCC4)nc2c1F [Compound 66] |
| > 5000 nM | 500 to 5000 nM | Oc1cccc(F)c1-c1c(Cl)cc2c(N3C4CCC3CNC4)nc(OCC34CCCN3CCC4)nc2c1F [Compound 67] |
| 500 to 5000 nM | 500 to 5000 nM | Fc1c(-c2cccc3ccccc23)c(Cl)cc2c(N3CC4CCC(C3)N4)nc(OCC34CCCN3CCC4)nc12 [Compound 69] |
| > 5000 nM | 500 to 5000 nM | Oc1ccc2ccccc2c1-c1c(Cl)cc2c(N3CC4CCC(C3)N4)nc(OCC34CCCN3CCC4)nc2c1F [Compound 70] |
| 500 to 5000 nM | 500 to 5000 nM | Fc1c(-c2cccc3cccc(Cl)c23)c(Cl)cc2c(N3C4CCC3CNC4)nc(OCC34CCCN3CCC4)nc12 [Compound 72] |
| < 500 nM | < 500 nM | Oc1cc(-c2c(Cl)cc3c(N4CC5CCC(C4)N5)nc(OC[C@@]45CCCN4C[C@H](F)C5)nc3c2F)c2c(Cl)c(F)ccc2c1 [Compound 74] |
| 500 to 5000 nM | > 5000 nM | Cc1cccc2[nH]nc(-c3c(Cl)cc4c(N5CC6CCC(C5)N6)nc(OC[C@@H]5CCCN5C)nc4c3F)c12 [Compound 75] |
| 500 to 5000 nM | < 500 nM | CN1C[C@H](F)C[C@H]1COc1nc(N2CC3CCC(C2)N3)c2cc(Cl)c(-c3cc(O)cc4ccccc34)c(F)c2n1 [Compound 76] |
| 500 to 5000 nM | > 5000 nM | Oc1cc(-c2c(Cl)cc3c(N4CC5CCC(C4)N5)nc(OCCN4CCCC4)nc3c2F)c2ccccc2c1 [Compound 78] |
| 500 to 5000 nM | < 500 nM | CN1CCC1COc1nc(N2CC3CCC(C2)N3)c2cc(Cl)c(-c3cc(O)cc4ccccc34)c(F)c2n1 (stereo not drawn) [Compound 79] |
| > 5000 nM | < 500 nM | CN1C[C@H](O)C[C@H]1COc1nc(N2CC3CCC(C2)N3)c2cc(Cl)c(-c3cc(O)cc4ccccc34)c(F)c2n1 [Compound 80] |
| 500 to 5000 nM | < 500 nM | Oc1cc(-c2c(Cl)cc3c(N4CC5CCC(C4)N5)nc(OCC45CCCN4CC(F)(F)C5)nc3c2F)c2ccccc2c1 (stereo not drawn) [Compound 81] |
| > 5000 nM | > 5000 nM | Oc1cc(-c2ccc3c(N4CC5CCC(C4)N5)nc(OCC45CCCN4CCC5)nc3c2F)c2c(Cl)cccc2c1 [Compound 82] |
| 500 to 5000 nM | > 5000 nM | CN1CCN(c2nc(N3CC4CCC(C3)N4)c3cc(Cl)c(-c4cc(O)cc5ccccc45)c(F)c3n2)CC1 [Compound 83] |
| < 500 nM | < 500 nM | Oc1cc(-c2c(Cl)cc3c(N4CC5CCC(C4)N5)nc(OCC45CCCN4CCC5)nc3c2F)c2ccccc2c1 [Compound 85] |
| < 500 nM | < 500 nM | N#Cc1cc2c(N3CC4CCC(C3)N4)nc(OC[C@@]34CCCN3C[C@H](F)C4)nc2c(F)c1-c1cc(O)cc2ccccc12 [Compound 86] |
| 500 to 5000 nM | 500 to 5000 nM | Cc1cccc2cccc(-c3c(C#N)cc4c(N5CC6CCC(C5)N6)nc(OC[C@@]56CCCN5C[C@H](F)C6)nc4c3F)c12 [Compound 87] |
| < 500 nM | < 500 nM | Cc1cccc2cc(O)cc(-c3c(C#N)cc4c(N5CC6CCC(C5)N6)nc(OC[C@@]56CCCN5C[C@H](F)C6)nc4c3F)c12 [Compound 88] |
| 500 to 5000 nM | 500 to 5000 nM | N#Cc1cc2c(N3CC4CCC(C3)N4)nc(OC[C@@]34CCCN3C[C@H](F)C4)nc2c(F)c1-c1cccc2cccc(Cl)c12 [Compound 89] |

| GI50 (Ba/F3_KRAS^G12D cells) | Kd [1] | Structure (SMILES) |
| --- | --- | --- |
| 500 to 5000 nM | > 5000 nM | N#Cc1cc2c(N3CC4CCC(C3)N4)nc(OC[C@@]34CCCN3C[C@H](F)C4)nc2c(F)c1-c1c(N)cccc1F [Compound 91] |
| < 500 nM | < 500 nM | Cc1ccc2[nH]ncc2c1-c1c(C#N)cc2c(N3CC4CCC(C3)N4)nc(OC[C@@]34CCCN3C[C@H](F)C4)nc2c1F [Compound 92] |
| 500 to 5000 nM | > 5000 nM | N#CC[C@H]1CN(c2nc(OC[C@@]34CCCN3C[C@H](F)C4)nc3c(F)c(-c4cc(O)cc5ccccc45)c(Cl)cc23)CCN1 [Compound 96] |
| 500 to 5000 nM | < 500 nM | Cc1cc(F)c2sc(N)nc2c1-c1c(Cl)cc2c(N3CC4CCC(C3)N4)nc(OC[C@@]34CCCN3C[C@H](F)C4)nc2c1F [Compound 100] |
| 500 to 5000 nM | > 5000 nM | Cc1cc(-c2c(Cl)cc3c(N4CC5CCC(C4)N5)nc(OC[C@@H]4CCCN4C)nc3c2F)cc2[nH]ncc12 [Compound 109] |
| > 5000 nM | 500 to 5000 nM | Nc1cc2ccccc2c(-c2c(Cl)cc3c(N4CC5CCC(C4)N5)nc(OCC45CCCN4CCC5)nc3c2F)n1 [Compound 116] |
| > 5000 nM | > 5000 nM | CN1CCC[C@H]1COc1nc(-c2cnc(N)s2)c2cc(Cl)c(-c3cc(O)cc4cccc(Cl)c34)c(F)c2n1 [Compound 121] |
| > 5000 nM | < 500 nM | CNC(=O)c1cc2c(N3CC4CCC(C3)N4)nc(OC[C@@]34CCCN3C[C@H](F)C4)nc2c(F)c1-c1cc(O)cc2cccc(Cl)c12 [Compound 122] |
| < 500 nM | < 500 nM | Oc1cc(-c2c(OCC3CC3)cc3c(N4CC5CCC(C4)N5)nc(OC[C@@]45CCCN4C[C@H](F)C5)nc3c2F)c2c(Cl)cccc2c1 [Compound 124] |
| 500 to 5000 nM | 500 to 5000 nM | Oc1cc(-c2c(Cl)cc3c(N4CCNCC4)nc(OC[C@@]45CCCN4C[C@H](F)C5)nc3c2F)c2ccccc2c1 [Compound 126] |
| 500 to 5000 nM | 500 to 5000 nM | C[C@H]1CNCCN1c1nc(OC[C@@]23CCCN2C[C@H](F)C3)nc2c(F)c(-c3cc(O)cc4ccccc34)c(Cl)cc12 [Compound 127] |
| 500 to 5000 nM | > 5000 nM | C[C@@H]1CN(c2nc(OC[C@@]34CCCN3C[C@H](F)C4)nc3c(F)c(-c4cc(O)cc5ccccc45)c(Cl)cc23)[C@@H](C)CN1 [Compound 128] |
| < 500 nM | < 500 nM | N#Cc1cc2c(N3CC4CCC(C3)N4)nc(OC[C@@]34CCCN3C[C@H](F)C4)nc2c(F)c1-c1cc(O)cc2ccc(F)c(Cl)c12 [Compound 129] |
| > 5000 nM | > 5000 nM | Cc1cc(N)nc(-c2c(Cl)cc3c(N4CC5CCC(C4)N5)nc(OC[C@@H]4CCCN4C)nc3c2F)c1 [Compound 130] |
| 500 to 5000 nM | < 500 nM | Cc1cccc2cccc(-c3c(Cl)cc4c(N5CC6CCC(C5)N6)nc(OC[C@@]56CCCN5C[C@H](F)C6)nc4c3F)c12 [Compound 131] |
| 500 to 5000 nM | < 500 nM | Nc1nc2c(-c3c(Cl)cc4c(N5CC6CCC(C5)N6)nc(OC[C@@]56CCCN5C[C@H](F)C6)nc4c3F)cc(C(F)(F)F)cc2s1 [Compound 132] |
| > 5000 nM | > 5000 nM | Cc1cc(N)nc(-c2c(Cl)cc3c(N4CCN[C@@H](CC#N)C4)nc(OC[C@@H]4C[C@@H](F)CN4C)nc3c2F)c1C(F)(F)F [Compound 135] |
| 500 to 5000 nM | < 500 nM | Cc1cccc2cc(F)cc(-c3c(Cl)cc4c(N5CC6CCC(C5)N6)nc(OC[C@@]56CCCN5C[C@H](F)C6)nc4c3F)c12 [Compound 137] |
| 500 to 5000 nM | 500 to 5000 nM | Nc1nc2c(-c3c(Cl)cc4c(N5CC6CCC(C5)N6)ncnc4c3F)ccc(F)c2s1 [Compound 140] |
| 500 to 5000 nM | < 500 nM | Nc1nc2c(-c3c(Cl)cc4c(N5CC6CCC(C5)N6)nc(OC[C@@]56CCCN5C[C@H](F)C6)nc4c3F)ccc(C(F)(F)F)c2s1 [Compound 143] |
| 500 to 5000 nM | > 5000 nM | COc1nc(N2CC3CCC(C2)N3)c2cc(Cl)c(-c3nc(N)cc(C)c3C(F)(F)F)c(F)c2n1 [Compound 144] |
| < 500 nM | < 500 nM | C#Cc1c(F)ccc2cc(O)cc(-c3c(Cl)cc4c(N5CC6CCC(C5)N6)nc(OC[C@@]56CCCN5C[C@H](F)C6)nc4c3F)c12 [Compound 146] |
| < 500 nM | < 500 nM | C#Cc1c(F)ccc2cc(O)cc(-c3c(OC)cc4c(N5CC6CCC(C5)N6)nc(OC[C@@]56CCCN5C[C@H](F)C6)nc4c3F)c12 [Compound 163] |

| Structure (SMILES) | GI50 (Ba/F3_KRAS^G12D cells) | Kd [1] |
| --- | --- | --- |
| Cc1cc(N)nc(-c2c(Cl)cc3c(N4CC5CCC(C4)N5)nc(OC[C@@]45CCCN4C[C@H](F)C5)nc3c2F)c1C(F)(F)F [Compound 142] | < 500 nM | < 500 nM |

Reference: patent US20230242544A1, “QUINAZOLINE COMPOUNDS, PREPARATION METHODS AND USES THEREOF” (INVENTISBIO CO., LTD., priority 2020, published 2023)
